Reference: paper PMC6385482 (2018)

Legend:
[1] = tested on: hpDNA (hairpin DNA, 28 bp as printed) (DNA, hairpin) CGCGAATTCGCGTTTTCGCGAATTCGCG; test: fluorescence titration, single-site fit; conditions: PBS (ion concentrations not given), PBS pH 7.4, room temperature, 1 h
[2] = tested on: hpDNA (hairpin DNA, 28 bp as printed) (DNA, hairpin) CGCGAATTCGCGTTTTCGCGAATTCGCG; test: fluorescence titration, two-site fit with offset; conditions: PBS (ion concentrations not given); PBS pH 7.4, room temperature, 1 h; 10 nM compound; site 1 of 2

Kd1 ([1]; 10 nM compound)	SMILES	also measured
4799 ± 201 nM	CN1CCN(c2ccc3nc(-c4ccc5nc(-c6ccc(OCCCCNC(=O)c7ccc8c(c7)C(=O)OC87c8ccc(N(C)C)cc8[Si](C)(C)c8cc(N(C)C)ccc87)cc6)[nH]c5c4)[nH]c3c2)CC1	
347 ± 22 nM	CN1CCN(c2ccc3nc(-c4ccc5nc(-c6ccc(OCCCCNC(=O)c7ccc8c(c7)C(=O)OC87c8ccc(N(C)C)cc8C(C)(C)c8cc(N(C)C)ccc87)cc6)[nH]c5c4)[nH]c3c2)CC1	
155 ± 14 nM	CNc1ccc2c(c1)C(C)(C)c1cc(NC)ccc1C21OC(=O)c2cc(C(=O)NCCCCOc3ccc(-c4nc5ccc(-c6nc7ccc(N8CCN(C)CC8)cc7[nH]6)cc5[nH]4)cc3)ccc21	
4374 ± 192 nM	CN1CCN(c2ccc3nc(-c4ccc5nc(-c6ccc(OCCCCNC(=O)c7ccc8c(c7)C(=O)OC87c8ccc(N(C)C)c[c]8[Ge]([CH3])([CH3])[c]8cc(N(C)C)ccc87)cc6)[nH]c5c4)[nH]c3c2)CC1	
572 ± 26 nM	CN1CCN(c2ccc3nc(-c4ccc5nc(-c6ccc(OCCCCNC(=O)c7ccc8c(c7)C7(OC8=O)c8ccc(N(C)C)c[c]8[Ge]([CH3])([CH3])[c]8cc(N(C)C)ccc87)cc6)[nH]c5c4)[nH]c3c2)CC1	
669 ± 26 nM	CN1CCN(c2ccc3nc(-c4ccc5nc(-c6ccc(OCCCCNC(=O)c7ccc8c(c7)C7(OC8=O)c8ccc(N(C)C)cc8[Si](C)(C)c8cc(N(C)C)ccc87)cc6)[nH]c5c4)[nH]c3c2)CC1	
	CN1CCN(c2ccc3nc(-c4ccc5nc(-c6ccc(OCCCCNC(=O)c7ccc8c(c7)C7(OC8=O)c8ccc(N(C)C)cc8C(C)(C)c8cc(N(C)C)ccc87)cc6)[nH]c5c4)[nH]c3c2)CC1	Kd1 [2]: 65 ± 7 nM
	CCOc1ccc(-c2nc3ccc(-c4nc5ccc(N6CCN(C)CC6)cc5[nH]4)cc3[nH]2)cc1	Kd1 ([1]; 4 nM compound): 2.6 ± 0.4 nM
	CN1CCN(c2ccc3nc(-c4ccc5nc(-c6ccc(OCCCCNC(=O)c7ccc8c(c7)C7(OC8=O)c8ccc(N(C)C)cc8Oc8cc(N(C)C)ccc87)cc6)[nH]c5c4)[nH]c3c2)CC1	Kd1 [2]: 14 ± 1 nM
365 ± 12 nM	CN1CCN(c2ccc3nc(-c4ccc5nc(-c6ccc(OCCCCNC(=O)c7ccc8c(c7)C(=O)OC87c8ccc(N(C)C)cc8Oc8cc(N(C)C)ccc87)cc6)[nH]c5c4)[nH]c3c2)CC1	
	CNc1ccc2c(c1)C(C)(C)c1cc(NC)ccc1C21OC(=O)c2ccc(C(=O)NCCCCOc3ccc(-c4nc5ccc(-c6nc7ccc(N8CCN(C)CC8)cc7[nH]6)cc5[nH]4)cc3)cc21	Kd1 [2]: 27 ± 3 nM
